Source: article PMC10673995, “Discovery of a novel cardiac-specific myosin modulator using artificial intelligence-based virtual screening” (Nature Communications, 2023)
Several values for one entry are separate records, joined by “and”; a condition that tells them apart may be missing. Identical values can stand only once. Like-named read-outs stand apart in the source and are kept apart here.

Key:
cardiac myofibrils = experiment: Myofibrillar ATPase, cardiac (ventricle) myofibrils; format: biochemical, marmoset (Callithrix jacchus)
Text: (§1) Next we tested the myosin isoform specificity of F10 by measuring its effect on the ATPase activity of myofibrils isolated from ventricle, and fast (Tiberialis Anterior) and slow skeletal muscles (Soleus) isolated from marmoset (Callithrix jacchus).
(§2) Demembranated myofibrils were freshly prepared from bovine ventricle on the day of the experiments as previously described[25],[63]. Marmoset ventricular and skeletal muscle tissue was kindly provided by the Biological Service Unit of King’s College London. Steady-state myofibrillar ATPase activity was measured using an identical protocol as described above but in myofibril assay buffer (composition in mmol L^−1: 20 MOPS pH 7, 50 KCl, 0.1 CaCl2, 1 DTT) with a final bovine CMF concentration of 1 mg mL^−1.

[1] = system: neuropeptide receptor NPYLR7; set-up: method as in PubChem; settings: ref PubChem; cited from earlier work
[2] = system: slow skeletal muscle (Soleus) myofibrils; experiment: Myofibrillar ATPase, slow skeletal myofibrils; format: biochemical, marmoset (Callithrix jacchus)
Text: as §1, §2

[3] = system: fast skeletal muscle (Tiberialis Anterior) myofibrils; experiment: Myofibrillar ATPase, fast skeletal myofibrils; format: biochemical, marmoset (Callithrix jacchus)
Text: as §1, §2

[4] = target: bovine β-cardiac myosin S1 / myosin S2 tail domain (Bos taurus, UniProt Q9BE39)
Sequence of bovine β-cardiac myosin S1 / myosin S2 tail domain (Q9BE39 85-778 limits assumed): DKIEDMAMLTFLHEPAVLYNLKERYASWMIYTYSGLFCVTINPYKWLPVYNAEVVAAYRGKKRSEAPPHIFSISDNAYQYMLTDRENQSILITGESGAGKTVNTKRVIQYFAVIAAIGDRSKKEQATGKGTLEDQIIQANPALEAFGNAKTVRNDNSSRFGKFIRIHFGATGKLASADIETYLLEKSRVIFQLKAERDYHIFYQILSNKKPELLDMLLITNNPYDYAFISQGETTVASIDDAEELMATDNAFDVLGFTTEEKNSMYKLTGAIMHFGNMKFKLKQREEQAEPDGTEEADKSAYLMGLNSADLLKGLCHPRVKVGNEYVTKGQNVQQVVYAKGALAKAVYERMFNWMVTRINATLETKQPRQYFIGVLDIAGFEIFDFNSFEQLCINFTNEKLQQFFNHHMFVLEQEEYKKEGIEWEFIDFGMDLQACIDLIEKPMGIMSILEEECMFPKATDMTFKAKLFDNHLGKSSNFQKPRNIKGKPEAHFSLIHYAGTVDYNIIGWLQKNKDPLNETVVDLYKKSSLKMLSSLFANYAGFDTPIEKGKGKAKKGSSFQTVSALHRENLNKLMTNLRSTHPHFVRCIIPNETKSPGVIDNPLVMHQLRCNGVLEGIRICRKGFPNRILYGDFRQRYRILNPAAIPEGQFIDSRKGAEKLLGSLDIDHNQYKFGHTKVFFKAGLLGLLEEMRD
Sequence of bovine β-cardiac myosin S1 / myosin S2 tail domain (P85100 whole entry partner, the tested form may be a part): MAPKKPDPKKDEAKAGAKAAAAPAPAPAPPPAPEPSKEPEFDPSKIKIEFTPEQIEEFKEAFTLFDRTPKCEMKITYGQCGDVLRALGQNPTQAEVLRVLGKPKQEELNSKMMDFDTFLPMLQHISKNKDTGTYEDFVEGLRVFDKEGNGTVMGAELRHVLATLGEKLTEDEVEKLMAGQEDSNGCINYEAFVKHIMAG
Procedure: In a subset of trabeculae, we replaced the endogenous myosin regulatory light chain (RLC) with a recombinant cardiac RLC crosslinked to a bifunctional sulforhodamine (BSR) along its E-helix (BSR-cRLC-E)[39],[40]. This allowed us to determine the orientation of the RLC-region of myosin in demembranated trabeculae using polarized fluorescence (Fig. 4b; Supplementary Table 2).
Microscale thermophoresis (MST) experiments were performed as described previously. Briefly, MST experiments were performed on a Monolith NT.115 instrument (NanoTemper) in interaction buffer containing 20 mmol L^−1 Mops, pH 7, 1 mmol L^−1 MgCl2, 50 mmol L^−1 KCl, 1 mmol L^−1 DTT, and 0.05% (v/v) Tween-20. […] All proteins were either gel-filtered into and/or extensively dialyzed against interaction buffer. Titration experiments were performed with a fixed concentration of 100 nmol L^−1 of Alexa647-labeled proteins in premium capillaries.

[5] = target: T1, bovine β-cardiac myosin S1 (Bos taurus, UniProt Q9BE39); experiment: Cardiac acto-myosin S1 ATPase (NADH-coupled); format: biochemical; set-up: myosin S1 ATPase activity vs F-actin concentration: unit not given here; settings: for myosin S1 ATPase activity vs F-actin concentration: 100 μmol/L F10, Experiment # 1-9
T1 construct: IC50 for the ATPase activity of the isolated myosin motor domain; from tissue; host or cells: bovine ventricle
T1 sequence (Q9BE39 85-778 limits assumed): as the sequence (Q9BE39 85-778 limits assumed) above
T1 sequence (P85100 whole entry partner, the tested form may be a part): as the sequence (P85100 whole entry partner, the tested form may be a part) above
Procedure: Bovine cardiac myosin S1 was prepared from bovine ventricle as previously described. Rabbit skeletal F-actin was purchased from Cytoskeleton Inc. and prepared for experiments according to manufacturer’s instructions.
20 μL of enzyme mix in buffer A (composition in mmol L^−1: 10 MOPS, 0.1 EGTA, 1 DTT, pH 7) containing 500 nmol L^−1 bovine cardiac myosin S1, 40 U mL^−1 lactate dehydrogenase and 400 U mL^−1 pyruvate kinase were dispensed into a black 96-well half area plate (Greiner). […] Each assay plate contained five wells with DMSO only (negative control) and five wells with 10 μmol L^−1 Blebbistatin (positive control). Plates were incubated on a plate shaker at 30 °C for 10 min at 2000 rpm. […] 96-channel pipette. Plates were briefly mixed by shaking at 5000 rpm on a plate shaker and spun down at 3000 g for 10 s. NADH fluorescence intensity was measured for each well using a ClarioStar Plate Reader for 10 min every 30 sec at 30 °C with the following settings: excitation at 380 nm with a 10 nm bandwidth and emission at 470 nm with a 24 nm bandwidth. Data were recorded with BMG Labtech Reader Control Software v6.20.

CCc1cc2c(=O)n(NC(=S)NC(C)C)cnc2s1 [F10]
reduction of ATPase activity of fully Ca^2+-activated cardiac myofibrils (cardiac myofibrils; 20 μmol L^−1 F10): about 25% | Myofibrilar ATPase [%], change vs control (cardiac myofibrils; Cardiac, 20 μmol L^-1 F10): -25% | Myofibrilar ATPase, individual experiments (cardiac myofibrils; Cardiac, 20 μmol L^-1 F10): 83.5308% and 67.1834% and 78.6678% and 70.8623% and 61.5039% and 74.009% and 72.9056% and 72.7421% and 68.3286% and 79.5291% and 87.482% and 81.308% and 87.6564% and 79.3198% and 89.7828% and 83.8896% and 74.0503% and 38.3012% and 88.0917% and 60.4189% | biological activity in primary screen [1]: without, however, any biological activity | decrease in ATPase activity of soleus myofibrils ([2]; 20 μmol L^−1 F10): about 10% | Myofibrilar ATPase [%], change vs control ([2]; Soleus (slow), 20 μmol L^-1 F10): -10% | Myofibrilar ATPase, individual experiments ([2]; Soleus, 20 μmol L^-1 F10): 91.7277% and 110.835% and 94.2329% and 93.0845% and 93.8276% and 88.6937% and 89.9096% and 92.8819% and 84.7083% and 101.326% and 81.2354% and 85.1848% and 83.8911% and 92.3346% and 84.6401% and 69.9319% and 80.963% and 77.0136% and 90.9224% and 106.296% and 102.343% and 99.9268% and 89.6779% and 109.737% | effect on ATPase of myofibrils isolated from fast skeletal muscle ([3]; 20 μmol L^−1 F10): no effect | Myofibrilar ATPase, individual experiments ([3]; Tiberialis Anterior, 20 μmol L^-1 F10): 103.058% and 94.7749% and 105.182% and 96.587% and 92.4359% and 90.2726% and 101.147% and 99.8027% and 75.8898% and 104.538% and 92.5792% and 95.4782% and 84.5124% and 86.7812% and 82.9998% and 107.831% and 122.01% and 86.3954% and 97.5199% and 112.738% and 111.197% and 105.032% and 96.8457% | Myofibrilar ATPase [%], change vs control ([3]; Tiberials Anterior (fast), 20 μmol L^-1 F10): -3% | Normalized MST binding S1-S2 ([4]; 1 mmol L-1 ADP.AlF4, S2D 0.0488): 0.03566 | Normalized MST binding S1-S2 ([4]; 1 mmol L-1 ADP.AlF4, S2D 0.0977): 0.0163 | Normalized MST binding S1-S2 ([4]; 1 mmol L-1 ADP.AlF4, S2D 0.3906): 0.009201 | Normalized MST binding S1-S2 ([4]; 1 mmol L-1 ADP.AlF4, S2D 0.7813): 0.03149 | Normalized MST binding S1-S2 ([4]; 1 mmol L-1 ADP.AlF4, S2D 1.5625): 0.0885 | Normalized MST binding S1-S2 ([4]; 1 mmol L-1 ADP.AlF4, S2D 3.125): 0.1616 | Normalized MST binding S1-S2 ([4]; 1 mmol L-1 ADP.AlF4, S2D 6.25): 0.3206 | Normalized MST binding S1-S2 ([4]; 1 mmol L-1 ADP.AlF4, S2D 12.5): 0.4612 | Normalized MST binding S1-S2 ([4]; 1 mmol L-1 ADP.AlF4, S2D 25): 0.6248 | Normalized MST binding S1-S2 ([4]; 1 mmol L-1 ADP.AlF4, S2D 50): 0.7947 | Normalized MST binding S1-S2 ([4]; 1 mmol L-1 ADP.AlF4, S2D 100): 0.8606 | Normalized MST binding S1-S2 ([4]; 1 mmol L-1 ADP, S2D 0.0488): 0.01363 | Normalized MST binding S1-S2 ([4]; 1 mmol L-1 ADP, S2D 0.0977): 0.01186 | Normalized MST binding S1-S2 ([4]; 1 mmol L-1 ADP, S2D 0.1953): 0.01368 | Normalized MST binding S1-S2 ([4]; 1 mmol L-1 ADP, S2D 0.3906): 0.0116 | Normalized MST binding S1-S2 ([4]; 1 mmol L-1 ADP, S2D 0.7813): 0.04036 | Normalized MST binding S1-S2 ([4]; 1 mmol L-1 ADP, S2D 1.5625): 0.07905 | Normalized MST binding S1-S2 ([4]; 1 mmol L-1 ADP, S2D 3.125): 0.1319 | Normalized MST binding S1-S2 ([4]; 1 mmol L-1 ADP, S2D 6.25): 0.2708 | Normalized MST binding S1-S2 ([4]; 1 mmol L-1 ADP, S2D 12.5): 0.4119 | Normalized MST binding S1-S2 ([4]; 1 mmol L-1 ADP, S2D 25): 0.5835 | Normalized MST binding S1-S2 ([4]; 1 mmol L-1 ADP, S2D 50): 0.7506 | Normalized MST binding S1-S2 ([4]; 1 mmol L-1 ADP, S2D 100): 0.8408 | Normalized MST binding S1-S2 ([4]; 1 mmol L-1 ATP, S2D 0.0488): 0.07487 | Normalized MST binding S1-S2 ([4]; 1 mmol L-1 ATP, S2D 0.0977): 0.0005344 | Normalized MST binding S1-S2 ([4]; 1 mmol L-1 ATP, S2D 0.1953): -0.01266 | Normalized MST binding S1-S2 ([4]; 1 mmol L-1 ATP, S2D 0.3906): 0.02682 | Normalized MST binding S1-S2 ([4]; 1 mmol L-1 ATP, S2D 0.7813): 0.008303 | Normalized MST binding S1-S2 ([4]; 1 mmol L-1 ATP, S2D 1.5625): 0.06777 | Normalized MST binding S1-S2 ([4]; 1 mmol L-1 ATP, S2D 3.125): 0.1347 | Normalized MST binding S1-S2 ([4]; 1 mmol L-1 ATP, S2D 6.25): 0.2613 | Normalized MST binding S1-S2 ([4]; 1 mmol L-1 ATP, S2D 12.5): 0.4278 | Normalized MST binding S1-S2 ([4]; 1 mmol L-1 ATP, S2D 25): 0.5839 | Normalized MST binding S1-S2 ([4]; 1 mmol L-1 ATP, S2D 50): 0.7582 | Normalized MST binding S1-S2 ([4]; 1 mmol L-1 ATP, S2D 100): 0.8343 | EC50 [5]: ~20 µM | LE (ligand efficiency) [5]: 0.34 | reduction of F-actin stimulated ATPase activity ([5]; 10 μmol L^−1, mean ± s.e.m., n = 4): 44 ± 2% | myosin S1 ATPase activity vs F-actin concentration ([5]; F-Actin 0 μmol L^−1): 0 | myosin S1 ATPase activity vs F-actin concentration ([5]; F-Actin 6.25 μmol L^−1): 0.1565 and 0.1528 and 0.08965 and 0.1313 and 0.1366 and 0.1027 and 0.1063 | myosin S1 ATPase activity vs F-actin concentration ([5]; F-Actin 80 μmol L^−1): 0.417 and 0.4489 and 0.3031 | remaining activity at 12.207 µM ([5]; F10 0.012207 mmol L-1 (so in the source), Experiment # 1-6, read-out: acto-myosin S1 ATPase activity, dose-response): 92.9% | remaining activity at 24.414 µM ([5]; F10 0.024414 mmol L-1 (so in the source), Experiment # 1-6, read-out: acto-myosin S1 ATPase activity, dose-response): 101% | remaining activity at 48.828 µM ([5]; F10 0.048828 mmol L-1 (so in the source), Experiment # 1-6, read-out: acto-myosin S1 ATPase activity, dose-response): 99.4% | remaining activity at 97.656 µM ([5]; F10 0.097656 mmol L-1 (so in the source), Experiment # 1-6, read-out: acto-myosin S1 ATPase activity, dose-response): 92.7% | remaining activity at […] ([5]; F10 0.195313 mmol L-1 (so in the source), Experiment # 1-6, read-out: acto-myosin S1 ATPase activity, dose-response): 94.4% | remaining activity at 390.625 µM ([5]; F10 0.390625 mmol L-1 (so in the source), Experiment # 1-6, read-out: acto-myosin S1 ATPase activity, dose-response): 98.9% | remaining activity at 781.25 µM ([5]; F10 0.78125 mmol L-1 (so in the source), Experiment # 1-6, read-out: acto-myosin S1 ATPase activity, dose-response): 100% | remaining activity at […] ([5]; F10 3.125 mmol L-1 (so in the source), Experiment # 1-6, read-out: acto-myosin S1 ATPase activity, dose-response): 86.8% | remaining activity at […] ([5]; F10 6.25 mmol L-1 (so in the source), Experiment # 1-6, read-out: acto-myosin S1 ATPase activity, dose-response): 79.3% | remaining activity at […] ([5]; F10 12.5 mmol L-1 (so in the source), Experiment # 1-6, read-out: acto-myosin S1 ATPase activity, dose-response): 69.6% | IC50 ([5]; IC50 acto-myosin S1 ATPase activity, means ± s.e.m., n = 6): 21.3 ± 3.4 µM | maximal decrease of actomyosin ATPase activity ([5]; dose-response, means ± s.e.m., n = 6): 89 ± 5% | maximal rate of ATP hydrolysis (kcat) ([5]; in the presence of 100 μmol/L F10, control about 1.3): about 0.5 s^−1 head^−1 | apparent dissociation equilibrium constant for F-actin binding (Kapp) ([5]; in the presence of F10 (same in its absence)): about 20 μmol L^−1 | IC50 ([5]; means ± s.e.m., n = 6, read-out: IC50 acto-myosin S1 ATPase activity): 21 ± 3 µM | acto-myosin S1 ATPase activity, normalized to DMSO control ([5]; single dose 10 μmol L^−1 compound, 10 μmol L^−1 F-actin, Repeat #1-#4, listed as 70): 59 and 55 and 52 and 58
